# Reference: patent publication US20260374754A1, “N-((ISOQUINOLIN-6-YL)METHYL)-1H-PYRAZOLE-4-CARBOXAMIDE DERIVATIVES AS PLASMA KALLIKREIN INHIBITORS FOR THE TREATMENT OF HEREDITARY ANGIODEMA” (Takeda Pharmaceutical Company Limited, priority 2022, published 2026)
# Target: human activated kallikrein enzyme (Homo sapiens, UniProt P03952)
# Test: Inhibition of human activated plasma kallikrein, fluorogenic PFR-AMC substrate, 500 pM enzyme format
# Type: biochemical
# Details: 500 pM activated kallikrein; 300 μM PFR-AMC; 30 min preincubation; 10 min room temperature; pH 7.5; read-out: Primary Dose Response Assay: Average EC50
# Method in brief: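 Using fluorogenic PFR-AMC at 300 μM, cleavage by 500 pM human activated kallikrein ran 10 min at room temperature, read at 460 nm emission (380 nm excitation). Enzyme and compounds were first preincubated 30 min in 20 mM Tris pH 7.5, 150 mM NaCl, 1 mM EDTA, 0.1% PEG-400, 0.1% Triton X-100.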
# Chain of human activated kallikrein enzyme (P03952 391-638 limits assumed): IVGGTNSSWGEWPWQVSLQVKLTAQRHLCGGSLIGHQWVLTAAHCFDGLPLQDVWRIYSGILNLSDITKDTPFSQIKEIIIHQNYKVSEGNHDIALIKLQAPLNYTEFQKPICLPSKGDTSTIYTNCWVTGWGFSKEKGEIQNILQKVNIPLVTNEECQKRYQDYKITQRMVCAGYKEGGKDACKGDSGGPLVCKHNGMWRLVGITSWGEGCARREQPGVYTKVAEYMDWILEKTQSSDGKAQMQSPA
# Chain of human activated kallikrein enzyme (P03952 20-390 partner limits assumed): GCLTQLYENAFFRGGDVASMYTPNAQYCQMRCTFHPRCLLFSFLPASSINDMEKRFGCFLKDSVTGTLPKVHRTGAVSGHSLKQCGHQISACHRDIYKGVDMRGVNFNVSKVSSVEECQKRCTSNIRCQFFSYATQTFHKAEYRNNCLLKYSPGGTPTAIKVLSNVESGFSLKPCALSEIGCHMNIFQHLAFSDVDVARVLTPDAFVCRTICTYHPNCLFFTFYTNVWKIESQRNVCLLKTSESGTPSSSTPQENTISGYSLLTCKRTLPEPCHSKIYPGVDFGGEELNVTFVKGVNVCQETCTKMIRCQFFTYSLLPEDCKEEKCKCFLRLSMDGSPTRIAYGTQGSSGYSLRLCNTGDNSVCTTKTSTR
row,SMILES,EC50 [nM]
1,"Cc1cc2c(N)nccc2c(C)c1CNC(=O)c1cnn(Cc2cc3ccc(Cl)cc3s2)c1 [Example 81, N-((1-amino-5,7-dimethylisoquinolin-6-yl)methyl)-1-((6-chlorobenzo[b]thiophen-2-yl)methyl)-1H-pyrazole-4-carboxamide]",1 to 10
2,"Cc1cc2c(N)nccc2c(C)c1CNc1nccc2cn(Cc3ccc(Cn4cccn4)cc3)nc12 [Example 260, 6-(((2-(4-((1H-pyrazol-1-yl)methyl)benzyl)-2H-pyrazolo[3,4-c]pyridin-7-yl)amino)methyl)-5,7-dimethylisoquinolin-1-amine]",1 to 10
3,"Cc1cc2c(N)nccc2c(C)c1CNC(=O)c1cnn(Cc2cc3ccccc3s2)c1 [Example 84, N-((1-amino-5,7-dimethylisoquinolin-6-yl)methyl)-1-(benzo[b]thiophen-2-ylmethyl)-1H-pyrazole-4-carboxamide]",1 to 10
4,"Cc1cc2c(N)nccc2c(C)c1CNc1cc2c(Cc3ccc4ccccc4c3)c[nH]c2cn1 [Example 526, 5,7-dimethyl-6-(((3-(naphthalen-2-ylmethyl)-1H-pyrrolo[2,3-c]pyridin-5-yl)amino)methyl)isoquinolin-1-amine]",> 1000
5,"CCOC(=O)Cc1ccc(Cn2cc(C(=O)NCc3c(C)cc4c(N)nccc4c3C)cn2)cc1 [Example 55, ethyl 2-(4-((4-(((1-amino-5,7-dimethylisoquinolin-6-yl)methyl)carbamoyl)-1H-pyrazol-1-yl)methyl)phenyl)acetate]",1 to 10
6,"Cc1cc2c(N)nccc2c(C)c1CNC(=O)c1cnn(Cc2ccc(-n3ccccc3=O)nc2)c1 [Example 46, N-((1-amino-5,7-dimethylisoquinolin-6-yl)methyl)-1-((2-oxo-2H-[1,2'-bipyridin]-5'-yl)methyl)-1H-pyrazole-4-carboxamide]",10 to 100
7,"Cc1cc2nc(Cn3cc(C(=O)NCc4c(C)cc5c(N)nccc5c4C)cn3)cn2cc1C1CC1 [Example 146, N-((1-amino-5,7-dimethylisoquinolin-6-yl)methyl)-1-((6-cyclopropyl-7-methylimidazo[1,2-a]pyridin-2-yl)methyl)-1H-pyrazole-4-carboxamide]",< 1
8,"Cc1cc2c(N)nccc2c(C)c1CNc1cc(OCc2cn3nc(C4CC4)cc(CN4CCCC4)c3n2)ncn1 [Example 394, 6-(((6-((6-cyclopropyl-8-(pyrrolidin-1-ylmethyl)imidazo[1,2-b]pyridazin-2-yl)methoxy)pyrimidin-4-yl)amino)methyl)-5,7-dimethylisoquinolin-1-amine]",< 1
9,"Cc1cc2c(N)nccc2c(C)c1CNc1cc(NCc2ccc(OCC(=O)N3CCCCC3)cc2)ncn1 [Example 346, 2-(4-(((6-(((1-amino-5,7-dimethylisoquinolin-6-yl)methyl)amino)pyrimidin-4-yl)amino)methyl)phenoxy)-1-(piperidin-1-yl)ethan-1-one]",1 to 10
10,"Cc1cc2c(N)nccc2c(C)c1CNc1cc(NCc2ccccc2)ncn1 [Example 341, N^4-((1-amino-5,7-dimethylisoquinolin-6-yl)methyl)-N^6-benzylpyrimidine-4,6-diamine]",100 to 1000
11,"Cc1cc2c(N)nccc2c(C)c1CNc1ncnc(NCc2ccc(Cn3cccn3)cc2)c1F [Example 234, N4-(4-((1H-pyrazol-1-yl)methyl)benzyl)-N6-((1-amino-5,7-dimethylisoquinolin-6-yl)methyl)-5-fluoropyrimidine-4,6-diamine]",10 to 100
12,"Cc1cc2c(N)nccc2c(C)c1CNC(=O)c1cnn(Cc2ccc(Cc3ncccn3)cc2)c1 [Example 168, N-((1-amino-5,7-dimethylisoquinolin-6-yl)methyl)-1-(4-(pyrimidin-2-ylmethyl)benzyl)-1H-pyrazole-4-carboxamide]",1 to 10
13,"Cc1ccc2nc(C(C)n3cc(C(=O)NCc4c(C)cc5c(N)nccc5c4C)cn3)cn2c1 (single isomer, unassigned) [Example 11, (R*)-N-((1-amino-5,7-dimethylisoquinolin-6-yl)methyl)-1-(1-(6-methylimidazo[1,2-a]pyridin-2-yl)ethyl)-1H-pyrazole-4-carboxamide]",< 1
14,"Cc1cc(Cn2cc(C(=O)NCc3c(C)cc4c(N)nccc4c3C)cn2)ccc1C1CC1 [Example 2, N-((1-amino-5,7-dimethylisoquinolin-6-yl)methyl)-1-(4-cyclopropyl-3-methylbenzyl)-1H-pyrazole-4-carboxamide]",1 to 10
15,"Cc1cc2c(N)nccc2c(C)c1CNC(=O)c1cnn(Cc2cn3c(F)c(C4CC4)ccc3n2)c1 [Example 142, N-((1-amino-5,7-dimethylisoquinolin-6-yl)methyl)-1-((6-cyclopropyl-5-fluoroimidazo[1,2-a]pyridin-2-yl)methyl)-1H-pyrazole-4-carboxamide]",< 1
16,"COc1ccc2nc(CNc3cc(NCc4c(C)cc5c(N)nccc5c4C)ncn3)ccc2c1 [Example 307, N^4-((1-amino-5,7-dimethylisoquinolin-6-yl)methyl)-N^6-((6-methoxyquinolin-2-yl)methyl)pyrimidine-4,6-diamine]",10 to 100
17,"Cc1cc2c(N)nccc2c(C)c1CNc1cc(NCc2ccc(CC(=O)N3CC4CC4C3)cc2)ncn1 (stereo not shown) [Example 378, 2-(4-(((6-(((1-amino-5,7-dimethylisoquinolin-6-yl)methyl)amino)pyrimidin-4-yl)amino)methyl)phenyl)-1-(3-azabicyclo[3.1.0]hexan-3-yl)ethan-1-one]",< 1
18,"Cc1cc2c(N)nccc2c(C)c1CNc1cc(NCc2nc3ccccc3s2)ncn1 [Example 319, N^4-((1-amino-5,7-dimethylisoquinolin-6-yl)methyl)-N6-(benzo[d]thiazol-2-ylmethyl)pyrimidine-4,6-diamine]",100 to 1000
19,"Cc1cc2c(N)nccc2c(C)c1CNc1cc(NCc2cn3cc(C4CC4)ccc3n2)cnc1C(=O)O [Example 497, 3-(((1-amino-5,7-dimethylisoquinolin-6-yl)methyl)amino)-5-(((6-cyclopropylimidazo[1,2-a]pyridin-2-yl)methyl)amino)picolinic acid]",> 1000
20,"Cc1cc2c(N)nccc2c(C)c1CNC(=O)c1cn(Cc2ccc(CC(=O)N3CC4CC4C3)cc2)nc1C(F)(F)F (stereo not shown) [Example 182, 1-(4-(2-(3-azabicyclo[3.1.0]hexan-3-y1)-2-oxoethyl)benzyl)-N-((1-amino-5,7-dimethylisoquinolin-6-yl)methyl)-3-(trifluoromethyl)-1H-pyrazole-4-carboxamide]",< 1
21,"Cc1cc2c(N)nccc2c(C)c1CNc1ncccc1OCc1cn2cc(C3CC3)ccc2n1 [Example 289, 6-(((3-((6-cyclopropylimidazo[1,2-a]pyridin-2-yl)methoxy)pyridin-2-yl)amino)methyl)-5,7-dimethylisoquinolin-1-amine]",100 to 1000
22,"Cc1cc2c(N)nccc2c(C)c1CNC(=O)c1cnn(Cc2ccc(Cc3cccn(CC(F)(F)F)c3=O)cc2)c1 [Example 196, N-((1-amino-5,7-dimethylisoquinolin-6-yl)methyl)-1-(4-((2-oxo-1-(2,2,2-trifluoroethyl)-1,2-dihydropyridin-3-yl)methyl)benzy1)-1H-pyrazole-4-carboxamide]",1 to 10
23,"Cc1cc2c(N)nccc2c(C)c1CNC(=O)c1cnn(Cc2ccc(C3CCN(C)C3=O)cc2)c1 (stereo not shown) [Example I-475, N-((1-amino-5,7-dimethylisoquinolin-6-yl)methyl)-1-(4-(1-methyl-2-oxopyrrolidin-3-yl)benzyl)-1H-pyrazole-4-carboxamide]",1 to 10
24,"Cc1cc2c(N)nccc2c(C)c1CNC(=O)c1cnn(Cc2ccc(CC(=O)N3C[C@@H]4[C@@H](CO)[C@@H]4C3)cc2)c1 [Example 208, N-((1-amino-5,7-dimethylisoquinolin-6-yl)methyl)-1-(4-(2-((1R,5S,6r)-6-(hydroxymethyl)-3-azabicyclo[3.1.0]hexan-3-y1)-2-oxoethyl)benzyl)-1H-pyrazole-4-carboxamide]",10 to 100
25,"Cc1cc2c(N)nccc2c(C)c1CNc1cc(NCc2ccc(Cc3cnccn3)cc2)ncn1 [Example 338, N^4-((1-amino-5,7-dimethylisoquinolin-6-yl)methyl)-N^6-(4-(pyrazin-2-ylmethyl)benzyl)pyrimidine-4,6-diamine]",1 to 10
26,"Cc1cc2c(N)nccc2c(C)c1CNC(=O)c1ccnc(Cc2ccc3ncc(Cl)cc3c2)c1 [Example 197, N-((1-amino-5,7-dimethylisoquinolin-6-yl)methyl)-2-((3-chloroquinolin-6-yl)methyl)isonicotinamide]",< 1
27,"Cc1cc2c(N)nccc2c(C)c1CNC(=O)c1cn(Cc2ccc(CC(=O)N3CC4CC4C3)cc2)nc1F (stereo not shown) [Example I-477, 1-(4-(2-(3-azabicyclo[3.1.0]hexan-3-yl)-2-oxoethyl)benzyl)-N-((1-amino-5,7-dimethylisoquinolin-6-yl)methyl)-3-fluoro-1H-pyrazole-4-carboxamide]",< 1
28,"Cc1cc2c(N)nccc2c(C)c1CNC(=O)c1cnn(Cc2cn3ccccc3n2)c1 [Example 53, N-((1-amino-5,7-dimethylisoquinolin-6-yl)methyl)-1-(imidazo[1,2-a]pyridin-2-ylmethyl)-1H-pyrazole-4-carboxamide]",1 to 10
29,"Cc1cc2c(N)nccc2c(C)c1CNC(=O)c1cnn(Cc2cccc(C(F)(F)F)c2)c1 [Example 97, N-((1-amino-5,7-dimethylisoquinolin-6-yl)methyl)-1-(3-(trifluoromethyl)benzyl)-1H-pyrazole-4-carboxamide]",10 to 100
30,"Cc1cc2c(N)nccc2c(C)c1CNc1cnc2[nH]cc(Cc3ccc4ccccc4c3)c2c1 [Example 527, 5,7-dimethyl-6-(((3-(naphthalen-2-ylmethyl)-1H-pyrrolo[2,3-b]pyridin-5-yl)amino)methyl)isoquinolin-1-amine]",> 1000

# Same assay, conditions: Primary Dose Response Assay: Average EC50, 500 pM activated kallikrein; 300 μM PFR-AMC; 30 min preincubation; 10 min room temperature; pH 7.5
row,SMILES,EC50 [nM]
1,"Cc1cc2c(N)nccc2c(C)c1CNc1cc(NCc2ccc(CC(=O)N(C)C)cc2)ncn1 [Example 375, 2-(4-(((6-(((1-amino-5,7-dimethylisoquinolin-6-yl)methyl)amino)pyrimidin-4-yl)amino)methyl)phenyl)-N,N-dimethylacetamide]",< 1
